Like-named read-outs stand apart in the source and are kept apart here.
What was measured:
[1] = test system: P. falciparum OAR; settings: cited from earlier work
[2] = test system: Escherichia coli OAR; settings: E. coli, ref [32], cited from earlier work
[3] = test system: M. tuberculosis OAR; settings: cited from earlier work
[4] = biological target: T1, rSjOAR (Schistosoma japonicum, UniProt Q5DB51); test: BIAcore assay of binding to immobilized rSjOAR
Experimental: The binding capacities of small compounds identified by the virtual screen with rSjOAR were assessed using a BIAcore 3000 instrument (BIAcore AB, Uppsala, Sweden). The recombinant His-tag fusion protein SjOAR was immobilized onto an NTA chip. Compounds were injected at a concentration of 10 µM and a flow rate of 40 µl/min in HBS buffer (0.01 M HEPES, 0.15 M NaCl, 3.0 mM EDTA, 0.005% Tween 20, pH 7.4) containing 1‰ DMSO (Dimethyl sulfoxide). Electrical alterations on the sensor chip were monitored as a resonance signal by using the program supplied by the manufacturer. To further obtain kinetic parameters, a series of compound concentrations (0.5 µM, 1 µM, 2 µM, 5 µM and 10 µM) were measured. Data were analyzed by using the software with which the instrument was equipped.

[5] = test system: adult worms; test: Inhibition studies on cultured adult worms
[6] = biological target: T1, rSjOAR; test: Effect of active compounds on rSjOAR enzymatic activity; type: biochemical
Experimental: The Median inhibitory concentration (IC50) was calculated by curve fitting using SPSS18.0 statistical software with a confidence interval of 95%. All assays were carried out in triplicate and repeated three times.

[7] = test system: adult worms; parameters: method as in PMID 19851783; settings: after the drug is removed; ref [30]; cited from earlier work
[8] = substrate: CC(=O)CC(=O)SCCNC(=O)CCNC(=O)[C@H](O)C(C)(C)COP(=O)(O)OP(=O)(O)OC[C@H]1O[C@@H](n2cnc3c(N)ncnc32)[C@H](O)[C@@H]1OP(=O)(O)O; test: rSjOAR kinetic analysis (Michaelis constants of substrates); type: biochemical; settings: other: S. japonicum; pH 6.8; 37.0 °C
Experimental: The linear rates obtained over the first 0–2 min were analyzed by the non-linear regression function in OriginPro software. To investigate the enzyme mechanism, a matrix of kinetic data was taken where one substrate was varied at four fixed concentrations of the other substrate. Individual data sets were analyzed using the Michaelis-Menten equation (eq 1) in order to establish whether the double-reciprocal plots were parallel or convergent. The data for intersecting initial velocity patterns were fitted to eq2, describing a steady-state sequential mechanism.

Molecule: CC(=O)CC(=O)SCCNC(=O)CCNC(=O)[C@H](O)C(C)(C)COP(=O)(O)OP(=O)(O)OC[C@H]1O[C@@H](n2cnc3c(N)ncnc32)[C@H](O)[C@@H]1OP(=O)(O)O [AcAcCoA, Acetoacetyl-CoA]
- Km ([1]; read-out: Km(app)AcAcCoA, ref [12], [22]): 510 ± 50 µM
- Km ([2]; read-out: Km(app)AcAcCoA): 2500 µM
- Km ([3]; read-out: Km(app)AcAcCoA, M. tuberculosis, ref [17], [20]): 170 ± 20 µM

Molecule: O=C(NC1CCN(CCc2c[nH]c3ccccc23)CC1)c1ccccc1 [OAR8]
- Rmax (maximum binding capacity) ([4]; BIAcore): 57.4
- KA (association constant) ([4]; BIAcore, five concentrations 0.5-10 µM): 82900 M⁻¹
- Kd ([4]; BIAcore, five concentrations 0.5-10 µM, read-out: KD (dissociation constant)): 12.1 µM
- mortality ([5]; primary screening, 50 µg/ml, after 48 h): 100%

Molecule: O=C(C1CCCCC1)N1CC(=O)N2CCc3ccccc3C2C1 (stereo not shown) [PZQ, praziquantel]
- BIAcore response signal ([4]; compound 10 µM): only a small signal
- effect on rSjOAR enzymatic activity [6]: no significant inhibition
- reversibility of effect against schistosomes [7]: reversible
- morphological changes, optical microscopy ([5]; PZQ 10 µg/ml, 24 h (Figure 5E)): drastic contractions
- mortality at 1.6 µg/mL ([5]; Schistosoma japonicum, 72 h): 83.3%

Molecule: NADPH
- Km ([1]; read-out: Km(app)NADPH, ref [12], [22]): 47.5 ± 4.5 µM
- Km ([2]; read-out: Km(app)NADPH): 21 µM
- Km ([3]; read-out: Km(app)NADPH): 26 ± 3 µM

B1: rSjOAR (Schistosoma japonicum) (protein)
chain: MISLSKKVAIVTGASSGIGRATAILFAKLGACVALVARDKSRLQETRQACIQVSHPDVYEKHKEPFLCIEADLGDSHEVEKAYRLALNHFHQLDILVNNAGFMIQDTVETFNIDEYERLMKLNLTAAITLTNLAVPDLTTTKGSIVNVSSVCGERSFPGVMSYCISKAALDQFTKCTALDLASKGIRVNSVNPAVIVTELHKRAGMSEDDYKKFLLKSKESHALGRTGTVEEVAQAIAFLSSSASSFTTGNLLMVDGGRSIMCPR
- Km [8]: 550 ± 30 µM

Reference: PMC3676400, “3-Oxoacyl-ACP Reductase from Schistosoma japonicum: Integrated In Silico-In Vitro Strategy for Discovering Antischistosomal Lead Compounds” (PLoS ONE, 2013)
